Test results: patent publication US20120040977A1, “INHIBITORS OF HCV NS5A” (PRESIDIO PHARMACEUTICALS, INC., priority 2009, published 2012)

Test system: HCV genotype 1b replicon
Experiment: HCV replicon assay (HCV 1b_Huh-Luc/Neo-ET cell line, luciferase readout)
Type: cell-based
Conditions: Hepatitis C virus; bicistronic genotype 1b replicon in Huh 7 cells, 72 h incubation, luciferase enzyme activity; read-out: Inhibition of HCV genotype 1b
Summary of the method: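 Huh 7 cells carrying a bicistronic genotype 1b luciferase replicon treated with compound in triplicate for 72 h. Luciferase activity expressed as percent of untreated control; EC50 from four-parameter curve fit, determined several times.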

Row | SMILES | EC50
1 | C[C@@H](NC(=O)C1CC1)C(=O)N1CCC[C@H]1C(=O)Nc1ccc(-c2ccc(-c3cnc([C@@H]4COCCN4C(=O)[C@@H](C)NC(=O)C4CC4)[nH]3)cc2)cc1 [Compound 19] | 1 to 9.9 nM
2 | COC(=O)N[C@@H](C(=O)N1CCC[C@H]1C(=O)NCc1ccc(-c2ccc(-c3cnc([C@@H]4CCCN4C(=O)[C@H](NC(=O)OC)c4ccccc4)[nH]3)cn2)cc1)c1ccccc1 [Compound 118] | < 1 nM
3 | O=C(N[C@@H](C(=O)N1CCC[C@H]1COc1ccc(-c2ccc(-c3cnc([C@@H]4CCCN4C(=O)[C@H](NC(=O)C4CC4)c4ccccc4)[nH]3)cc2)cc1)c1ccccc1)C1CC1 [Compound 31] | < 1 nM
4 | COC(=O)N[C@H](C(=O)N1CCC[C@H]1C(=O)N[C@H](C)c1ccc(-c2ccc(-c3cnc([C@@H]4CCCN4C(=O)[C@@H](NC(=O)OC)[C@@H](C)OC)[nH]3)cc2)cc1)[C@@H](C)OC [Compound 102] | 10 to 999 nM
5 | C[C@@H](NC(=O)[C@@H]1CCCN1C(=O)[C@H](NC(=O)N1CCOCC1)c1ccccc1)c1ccc(-c2ccc(-c3cnc([C@@H]4CCCN4C(=O)[C@H](NC(=O)N4CCOCC4)c4ccccc4)[nH]3)cc2)cc1 [Compound 41] | 1 to 9.9 nM
6 | O=C(N[C@@H](C(=O)N1CCOC[C@H]1C(=O)Nc1ccc(-c2ccc(-c3cnc([C@@H]4COCCN4C(=O)[C@H](NC(=O)C4CC4)c4ccccc4)[nH]3)cc2)cc1)c1ccccc1)C1CC1 [Compound 1] | < 1 nM
7 | C[C@H](NC(=O)[C@@H]1CCCN1C(=O)[C@H](NC(=O)N1CCN(C)CC1)c1ccccc1)c1ccc(-c2ccc(-c3cnc([C@@H]4CCCN4C(=O)[C@H](NC(=O)N4CCN(C)CC4)c4ccccc4)[nH]3)cc2)cc1 [Compound 36] | 1 to 9.9 nM
8 | C[C@@H](NC(=O)OC(C)(C)C)C(=O)N1CCOC[C@H]1C(=O)Nc1ccc(-c2ccc(-c3cnc([C@@H]4CCCN4C(=O)[C@@H](C)NC(=O)OC(C)(C)C)[nH]3)cc2)cc1 [Compound 12] | 10 to 999 nM
9 | C#CC[C@H](NC(=O)OC)C(=O)N1CCC[C@H]1C(=O)Nc1ccc(-c2ccc(-c3cnc([C@@H]4CCCN4C(=O)[C@H](CC#C)NC(=O)OC)[nH]3)cc2)cc1 [Compound 76] | 1 to 9.9 nM
10 | CN1CCN(C(=O)N[C@@H](C(=O)N2CCC[C@H]2C(=O)NCc2ccc(-c3ccc(-c4cnc([C@@H]5CCCN5C(=O)[C@H](NC(=O)N5CCN(C)CC5)c5ccccc5)[nH]4)cc3)cc2)c2ccccc2)CC1 [Compound 45] | 1 to 9.9 nM
11 | COC(=O)N[C@@H](C)C(=O)N1CCC[C@H]1CNC(=O)c1ccc(-c2ccc(-c3cnc([C@@H]4CCCN4C(=O)[C@H](C)NC(=O)OC)[nH]3)cc2)cc1 [Compound 98] | 1 to 9.9 nM
12 | C[C@@H](NC(=O)OC(C)(C)C)C(=O)N1CCC[C@H]1C(=O)Nc1ccc(-c2ccc(-c3cnc([C@@H]4CCCN4C(=O)[C@@H](C)NC(=O)OC(C)(C)C)[nH]3)cc2)cc1 [Compound 14] | 1 to 9.9 nM
13 | O=C(Nc1ccc(-c2ccc(-c3cnc([C@@H]4COCCN4C(=O)[C@H](NC(=O)N4CCOCC4)c4ccccc4)[nH]3)cc2)cc1)[C@@H]1COCCN1C(=O)[C@H](NC(=O)N1CCOCC1)c1ccccc1 [Compound 2] | 1 to 9.9 nM
14 | O=C(N[C@@H](C(=O)N1CCC[C@H]1c1ncc(-c2ccc(Sc3ccc(-c4cnc([C@@H]5CCCN5C(=O)[C@H](NC(=O)C5CC5)c5ccccc5)[nH]4)cc3)cc2)[nH]1)c1ccccc1)C1CC1 [Compound 50] | < 1 nM
15 | COC(=O)N[C@@H](C(=O)N1CCC[C@H]1c1ncc(-c2ccc(-c3ccc(C(=O)NC[C@@H]4CCCN4C(=O)[C@H](NC(=O)N4CCOCC4)c4ccccc4)cc3)cc2)[nH]1)c1ccccc1 [Compound 67] | < 1 nM
16 | COC(=O)N[C@@H](C(=O)N1CCC[C@H]1C(=O)NCc1ccc(-c2ccc(-c3cnc([C@@H]4CCCN4C(=O)[C@H](NC(=O)OC)c4ccccc4)[nH]3)cc2)cn1)c1ccccc1 [Compound 120] | < 1 nM
17 | CN1CCN(C(=O)N[C@@H](C(=O)N2CCC[C@H]2COc2ccc(-c3ccc(-c4cnc([C@@H]5CCCN5C(=O)[C@H](NC(=O)N5CCN(C)CC5)c5ccccc5)[nH]4)cc3)cc2)c2ccccc2)CC1 [Compound 35] | 1 to 9.9 nM
18 | COC(=O)N[C@H](C(=O)N[C@@H](C)c1ncc(-c2ccc(-c3ccc(C(=O)NC[C@@H]4CCCN4C(=O)[C@@H](NC(=O)OC)C(C)C)cc3)cc2)[nH]1)C(C)C [Compound 88] | < 1 nM
